Measured values taken from PubChem BioAssay AID1745844 (Carcinogenic Potency Database (CPDB), 2022).
The source made the active and inactive calls. How the calls were made is not given here.

Test system: rodent lifetime carcinogenesis bioassay, tumor incidence TD50
Test: chronic cancer bioassays in animals – CPDB, compiled studies (AID 1745844)

## CCN(Cc1cccc(S(=O)(=O)O)c1)c1ccc(C(=C2C=CC(=[N+](CC)Cc3cccc(S(=O)(=O)[O-])c3)C=C2)c2ccccc2)cc1
mouse, strain C3HeB/FeJ, females, in feed, site: any site (literature study), lesion: malignant tumor, dosed 104 weeks, study length 104 weeks
  TD50: 18400 mg/kg/day (inactive)
mouse, strain C3HeB/FeJ, females, in feed, site: any site (literature study), lesion: several types, types named in the paper, dosed 104 weeks, study length 104 weeks
  carcinogen call: negative (inactive)
mouse, strain C3HeB/FeJ, females, in feed, site: liver, lesion: several types, types named in the paper, dosed 104 weeks, study length 104 weeks
  TD50: 146000 mg/kg/day (inactive)
mouse, strain C3HeB/FeJ, females, in feed, site: lung, lesion: adenoma, dosed 104 weeks, study length 104 weeks
  TD50: 146000 mg/kg/day (inactive)
mouse, strain C3HeB/FeJ, males, in feed, site: any site (literature study), lesion: malignant tumor, dosed 104 weeks, study length 104 weeks
  carcinogen call: negative (inactive)
mouse, strain C3HeB/FeJ, males, in feed, site: any site (literature study), lesion: several types, types named in the paper, dosed 104 weeks, study length 104 weeks
  TD50: 20800 mg/kg/day (inactive)
mouse, strain C3HeB/FeJ, males, in feed, site: liver, lesion: several types, types named in the paper, dosed 104 weeks, study length 104 weeks
  TD50: 26100 mg/kg/day (inactive)
mouse, strain C3HeB/FeJ, males, in feed, site: lung, lesion: several types, types named in the paper, dosed 104 weeks, study length 104 weeks
  TD50: 59200 mg/kg/day
rat, strain Osborne-Mendel, females, in feed, site: any site (literature study), lesion: malignant tumor, dosed 104 weeks, study length 104 weeks
  carcinogen call: negative (inactive)
rat, strain Osborne-Mendel, females, in feed, site: any site (literature study), lesion: several types, types named in the paper, dosed 104 weeks, study length 104 weeks
  TD50: 97500 mg/kg/day
rat, strain Osborne-Mendel, females, in feed, site: liver, lesion: several types, types named in the paper, dosed 104 weeks, study length 104 weeks
  TD50: 13800 mg/kg/day
rat, strain Osborne-Mendel, males, in feed, site: any site (literature study), lesion: malignant tumor, dosed 104 weeks, study length 104 weeks
  carcinogen call: negative (inactive)
rat, strain Osborne-Mendel, males, in feed, site: any site (literature study), lesion: several types, types named in the paper, dosed 104 weeks, study length 104 weeks
  TD50: 11400 mg/kg/day
rat, strain Osborne-Mendel, males, in feed, site: liver, lesion: several types, types named in the paper, dosed 104 weeks, study length 104 weeks
  TD50: 5980 mg/kg/day
rat, strain Wistar, both sexes, in feed, site: abdomen, lesion: malignant lymphoma, dosed 93 weeks, study length 93 weeks
  TD50: 8370 mg/kg/day
rat, strain Wistar, both sexes, in feed, site: mediastinum, lesion: malignant lymphoma, dosed 93 weeks, study length 93 weeks
  TD50: 8370 mg/kg/day
rat, strain Wistar, both sexes, in feed, site: several sites, sites named in the paper, lesion: malignant lymphoma, dosed 93 weeks, study length 93 weeks
  TD50: 3920 mg/kg/day

## c1ccc2sc(SN3CCOCC3)nc2c1
mouse, strain B6AKF1, females, oral dosing, site: any site (literature study), lesion: several types, types named in the paper, dosed 76 weeks, study length 76 weeks
  TD50: 1310 mg/kg/day (inactive)
mouse, strain B6AKF1, females, oral dosing, site: liver, lesion: hepatoma, dosed 76 weeks, study length 76 weeks
  carcinogen call: negative (inactive)
mouse, strain B6AKF1, females, oral dosing, site: lung, lesion: adenoma, dosed 76 weeks, study length 76 weeks
  carcinogen call: negative (inactive)
mouse, strain B6AKF1, males, oral dosing, site: any site (literature study), lesion: several types, types named in the paper, dosed 76 weeks, study length 76 weeks
  carcinogen call: negative (inactive)
mouse, strain B6AKF1, males, oral dosing, site: liver, lesion: hepatoma, dosed 76 weeks, study length 76 weeks
  TD50: 20100 mg/kg/day (inactive)
mouse, strain B6AKF1, males, oral dosing, site: lung, lesion: adenoma, dosed 76 weeks, study length 76 weeks
  carcinogen call: negative (inactive)
mouse, strain B6C3F1, females, oral dosing, site: any site (literature study), lesion: several types, types named in the paper, dosed 76 weeks, study length 76 weeks
  TD50: 386 mg/kg/day (inactive)
mouse, strain B6C3F1, females, oral dosing, site: liver, lesion: hepatoma, dosed 76 weeks, study length 76 weeks
  TD50: 1230 mg/kg/day (inactive)
mouse, strain B6C3F1, females, oral dosing, site: lung, lesion: adenoma, dosed 76 weeks, study length 76 weeks
  TD50: 598 mg/kg/day (inactive)
mouse, strain B6C3F1, males, oral dosing, site: any site (literature study), lesion: several types, types named in the paper, dosed 76 weeks, study length 76 weeks
  TD50: 200 mg/kg/day (inactive)
mouse, strain B6C3F1, males, oral dosing, site: liver, lesion: hepatoma, dosed 76 weeks, study length 76 weeks
  TD50: 359 mg/kg/day (inactive)
mouse, strain B6C3F1, males, oral dosing, site: lung, lesion: adenoma, dosed 76 weeks, study length 76 weeks
  TD50: 556 mg/kg/day (inactive)

## COc1c2occc2cc2ccc(=O)oc12
mouse, strain HRA/Skh (hairless), females, in feed, site: skin, lesion: several types, types named in the paper, dosed 52 weeks, study length 80 weeks
  TD50: 56.8 mg/kg/day (inactive)
mouse, strain HRA/Skh (hairless), females, in feed, site: skin, lesion: squamous-cell carcinoma, dosed 52 weeks, study length 80 weeks
  TD50: 48.9 mg/kg/day (inactive)
mouse, strain HRA/Skh (hairless), females, in feed, site: skin, lesion: squamous-cell papilloma, dosed 52 weeks, study length 80 weeks
  TD50: 151 mg/kg/day (inactive)
mouse, strain HRA/Skh (hairless), males, in feed, site: skin, lesion: several types, types named in the paper, dosed 52 weeks, study length 80 weeks
  carcinogen call: negative (inactive)
mouse, strain HRA/Skh (hairless), males, in feed, site: skin, lesion: squamous-cell carcinoma, in situ, dosed 52 weeks, study length 80 weeks
  carcinogen call: negative (inactive)
mouse, strain HRA/Skh (hairless), males, in feed, site: skin, lesion: squamous-cell carcinoma, dosed 52 weeks, study length 80 weeks
  carcinogen call: negative (inactive)
mouse, strain HRA/Skh (hairless), males, in feed, site: skin, lesion: squamous-cell papilloma, dosed 52 weeks, study length 80 weeks
  TD50: 137 mg/kg/day (inactive)
rat, strain Fischer 344, females, by gavage, site: any site (literature study), lesion: several types, types named in the paper, dosed 103 weeks, study length 105 weeks
  TD50: 45.6 mg/kg/day
rat, strain Fischer 344, females, by gavage, site: liver, lesion: hepatocellular adenoma + hepatocellular carcinoma + neoplastic nodule, dosed 103 weeks, study length 105 weeks
  TD50: 5140 mg/kg/day
rat, strain Fischer 344, females, by gavage, site: palate + tongue, lesion: squamous-cell papilloma, dosed 103 weeks, study length 105 weeks
  TD50: 333 mg/kg/day (inactive)
rat, strain Fischer 344, males, by gavage, site: Zymbal's gland, lesion: carcinoma, NOS + squamous-cell carcinoma, dosed 103 weeks, study length 105 weeks
  TD50: 101 mg/kg/day
rat, strain Fischer 344, males, by gavage, site: any site (literature study), lesion: several types, types named in the paper, dosed 103 weeks, study length 105 weeks
  TD50: 16.1 mg/kg/day
rat, strain Fischer 344, males, by gavage, site: kidney + Zymbal's gland, lesion: tubular-cell adenoma + tubular-cell adenocarcinoma + carcinoma, NOS + squamous-cell carcinoma, dosed 103 weeks, study length 105 weeks
  TD50: 27.3 mg/kg/day
rat, strain Fischer 344, males, by gavage, site: kidney, lesion: tubular-cell adenocarcinoma, dosed 103 weeks, study length 105 weeks
  TD50: 167 mg/kg/day
rat, strain Fischer 344, males, by gavage, site: kidney, lesion: tubular-cell adenoma + tubular-cell adenocarcinoma, dosed 103 weeks, study length 105 weeks
  TD50: 32.4 mg/kg/day
rat, strain Fischer 344, males, by gavage, site: kidney, lesion: tubular-cell adenoma, dosed 103 weeks, study length 105 weeks
  TD50: 43.2 mg/kg/day
rat, strain Fischer 344, males, by gavage, site: lung, lesion: alveolar/bronchiolar adenoma + alveolar/bronchiolar carcinoma, dosed 103 weeks, study length 105 weeks
  TD50: 57.1 mg/kg/day
rat, strain Fischer 344, males, by gavage, site: lung, lesion: alveolar/bronchiolar adenoma, dosed 103 weeks, study length 105 weeks
  TD50: 57.1 mg/kg/day
rat, strain Fischer 344, males, by gavage, site: lung, lesion: alveolar/bronchiolar carcinoma, dosed 103 weeks, study length 105 weeks
  TD50: 488 mg/kg/day
rat, strain Fischer 344, males, by gavage, site: pancreas, lesion: acinar-cell adenoma, dosed 103 weeks, study length 105 weeks
  TD50: 113 mg/kg/day
rat, strain Fischer 344, males, by gavage, site: subcutaneous tissue, lesion: fibroma + sarcoma, NOS, dosed 103 weeks, study length 105 weeks
  TD50: 70.2 mg/kg/day
rat, strain Fischer 344, males, by gavage, site: subcutaneous tissue, lesion: fibroma, dosed 103 weeks, study length 105 weeks
  TD50: 72.6 mg/kg/day
rat, strain Fischer 344, males, by gavage, site: testis, lesion: interstitial-cell tumor, dosed 103 weeks, study length 105 weeks
  TD50: 14.6 mg/kg/day

## NC1=NCN([C@@H]2O[C@H](CO)[C@@H](O)[C@H]2O)C(=O)N1
rat, strain Fischer 344, males, i.p., site: any site (literature study), lesion: one or several types, types not named, dosed 52 weeks, study length 52 weeks
  TD50: 20.7 mg/kg/day
